From patent publication US6407204B1 (priority 1997, dated 2002)

Key:
Male Sprague-Dawley rats [1] = settings: rat, in vivo
Male Sprague-Dawley rats [2] = settings: rat, in vivo; remark: listed apart in the source

Substance | ED50 in phase II (Male Sprague-Dawley rats [1]) [µg] | analgesic doses in the formalin test (Male Sprague-Dawley rats [1]) [µg] | effect on phase I flinches (Male Sprague-Dawley rats [1]) | effect on phase II flinches (Male Sprague-Dawley rats [1]) | potency in phase II (tonic pain) versus phase I (acute pain) (Male Sprague-Dawley rats [1]) | overt signs of toxicity (Male Sprague-Dawley rats [2]) | dose required to induce analgesic effects in both acute and tonic pain portions (Male Sprague-Dawley rats [1]) | effect of the single agent alone (Male Sprague-Dawley rats [1]) | rats showing signs of incoordination (Male Sprague-Dawley rats [2])
Gly-Glu-Gla-Gla-Leu-Gln-Gla-Asn-Gln-Gla-Leu-Ile-Arg-Gla-Lys-Ser-Asn-NH2 [Conantokin G] | 0.15 | 0.05 to 1 | without significantly decreasing | nearly abolished | very potent | no overt signs of toxicity | – | – | –
Gly-Glu-Gla-Gla-Val-Ala-Lys-Met-Ala-Ala-Glu-Leu-Ala-Arg-Glu-Asn-Ile-Ala-Lys-Gly-Cys-Lys-Val-Asn-Cys-Tyr-Pro [Conantokin R] | – | – | – | – | – | – | more than 3.3 μg | no effect | One of six rats
